Laboratory results as given in patent publication US9738644B2, “Chemical compounds, compositions and methods for kinase modulation” (Infinity Pharmaceuticals, Inc., priority 2010, dated 2017).

Columns and labels:
PI3K δ = target: T1, PI3K δ (Homo sapiens, UniProt O00329); experiment: In vitro PI3K δ inhibition assay; type: biochemical
T1 construct: purchased Upstate
Experimental: (§1) Class I PI3-Ks can be either purchased (p110α/p85α, p110β/p85α, p110δ/p85α from Upstate, and p110γ from Sigma) or expressed as previously described (Knight et al., 2004). IC50 values are measured using either a standard TLC assay for lipid kinase activity (described below) or a high-throughput membrane capture assay. Kinase reactions are performed by preparing a reaction mixture containing kinase, inhibitor (2% DMSO final concentration), buffer (25 mM HEPES, pH 7.4, 10 mM MgCl2), and freshly sonicated phosphatidylinositol (100 μg/ml). Reactions are initiated by the addition of ATP containing 10 μCi of γ-32P-ATP to a final concentration of 10 or 100 μM and allowed to proceed for 5 minutes at room temperature. For TLC analysis, reactions are then terminated by the addition of 105 μl 1N HCl followed by 160 μl CHCl3:MeOH (1:1). The biphasic mixture is vortexed, briefly centrifuged, and the organic phase is transferred to a new tube using a gel loading pipette tip precoated with CHCl3. This extract is spotted on TLC plates and developed for 3-4 hours in a 65:35 solution of n-propanol:1M acetic acid. The TLC plates are then dried, exposed to a phosphorimager screen (Storm, Amersham), and quantitated. For each compound, kinase activity is measured at 10-12 inhibitor concentrations representing two-fold dilutions from the highest concentration tested (typically, 200 μM). […] Other commercial kits or systems for assaying PI3-K activities are available. The commercially available kits or systems can be used to screen for inhibitors and/or agonists of PI3-Ks including, but not limited to, PI 3-Kinase α, β, δ, and γ. An exemplary system is PI 3-Kinase (human) HTRF™ Assay from Upstate. […] Briefly, the assay is a time resolved FRET assay that indirectly measures PIP3 product formed by the activity of a PI3-K. The kinase reaction is performed in a microtiter plate (e.g., a 384 well microtiter plate). The total reaction volume is approximately 20 μl per well. In the first step, each well receives 2 μl of test compound in 20% dimethylsulphoxide resulting in a 2% DMSO final concentration. Next, approximately 14.5 μl of a kinase/PIP2 mixture (diluted in 1× reaction buffer) is added per well for a final concentration of 0.25-0.3 μg/ml kinase and 10 μM PIP2. The plate is sealed and incubated for 15 minutes at room temperature. To start the reaction, 3.5 μl of ATP (diluted in 1× reaction buffer) is added per well for a final concentration of 10 μM ATP. The plate is sealed and incubated for 1 hour at room temperature. The reaction is stopped by adding 5 μl of Stop Solution per well and then 5 μl of Detection Mix is added per well. The plate is sealed, incubated for 1 hour at room temperature, and then read on an appropriate plate reader. Data is analyzed and IC50s are generated using GraphPad Prism 5.

PI3K γ = target: T2, PI3K γ (Homo sapiens, UniProt P48736); experiment: In vitro PI3K γ inhibition assay; type: biochemical
T2 construct: purchased Sigma
Experimental: as §1

PI3K β = target: T3, PI3K β (Homo sapiens, UniProt P42338); experiment: In vitro PI3K β inhibition assay; type: biochemical
T3 construct: purchased Upstate
Experimental: (§2) Class I PI3-Ks can be either purchased (p110α/p85α, p110β/p85α, p110δ/p85α from Upstate, and p110γ from Sigma) or expressed as previously described (Knight et al., 2004). IC50 values are measured using either a standard TLC assay for lipid kinase activity (described below) or a high-throughput membrane capture assay. Kinase reactions are performed by preparing a reaction mixture containing kinase, inhibitor (2% DMSO final concentration), buffer (25 mM HEPES, pH 7.4, 10 mM MgCl2), and freshly sonicated phosphatidylinositol (100 μg/ml). Reactions are initiated by the addition of ATP containing 10 μCi of γ-32P-ATP to a final concentration of 10 or 100 μM and allowed to proceed for 5 minutes at room temperature. For TLC analysis, reactions are then terminated by the addition of 105 μl 1N HCl followed by 160 μl CHCl3:MeOH (1:1). The biphasic mixture is vortexed, briefly centrifuged, and the organic phase is transferred to a new tube using a gel loading pipette tip precoated with CHCl3. This extract is spotted on TLC plates and developed for 3-4 hours in a 65:35 solution of n-propanol:1M acetic acid. The TLC plates are then dried, exposed to a phosphorimager screen (Storm, Amersham), and quantitated. For each compound, kinase activity is measured at 10-12 inhibitor concentrations representing two-fold dilutions from the highest concentration tested (typically, 200 μM).
(§3) Other commercial kits or systems for assaying PI3-K activities are available. The commercially available kits or systems can be used to screen for inhibitors and/or agonists of PI3-Ks including, but not limited to, PI 3-Kinase α, β, δ, and γ. An exemplary system is PI 3-Kinase (human) HTRF™ Assay from Upstate. […] Briefly, the assay is a time resolved FRET assay that indirectly measures PIP3 product formed by the activity of a PI3-K. The kinase reaction is performed in a microtiter plate (e.g., a 384 well microtiter plate). The total reaction volume is approximately 20 μl per well. In the first step, each well receives 2 μl of test compound in 20% dimethylsulphoxide resulting in a 2% DMSO final concentration. Next, approximately 14.5 μl of a kinase/PIP2 mixture (diluted in 1× reaction buffer) is added per well for a final concentration of 0.25-0.3 μg/ml kinase and 10 μM PIP2. The plate is sealed and incubated for 15 minutes at room temperature. To start the reaction, 3.5 μl of ATP (diluted in 1× reaction buffer) is added per well for a final concentration of 10 μM ATP. The plate is sealed and incubated for 1 hour at room temperature. The reaction is stopped by adding 5 μl of Stop Solution per well and then 5 μl of Detection Mix is added per well. The plate is sealed, incubated for 1 hour at room temperature, and then read on an appropriate plate reader. Data is analyzed and IC50s are generated using GraphPad Prism 5.

PI3K α = target: T4, PI3K α (Homo sapiens, UniProt P42336); experiment: In vitro PI3K α inhibition assay; type: biochemical
T4 construct: purchased Upstate
Experimental: as §2, §3

Balb/c splenic B cells = experiment: B cell activation and proliferation assay (Alamar Blue); type: cell-based; details: Mus musculus, read-out: B cell proliferation EC50
Experimental: The ability of one or more subject compounds to inhibit B cell activation and proliferation is determined according to standard procedures known in the art. For example, an in vitro cellular proliferation assay is established that measures the metabolic activity of live cells. The assay is performed in a 96 well microtiter plate using Alamar Blue reduction. Balb/c splenic B cells are purified over a Ficoll-Paque™ PLUS gradient followed by magnetic cell separation using a MACS B cell Isolation Kit (Miletenyi). Cells are plated in 90 μl at 50,000 cells/well in B Cell Media (RPMI+10% FBS+Penn/Strep+50 μM bME+5 mM HEPES). A compound disclosed herein is diluted in B Cell Media and added in a 10 μl volume. Plates are incubated for 30 min at 37° C. and 5% CO2 (0.2% DMSO final concentration). A 50 μl B cell stimulation cocktail is then added containing either 10 μg/ml LPS or 5 μg/ml F(ab′)2 Donkey anti-mouse IgM plus 2 ng/ml recombinant mouse IL4 in B Cell Media. Plates are incubated for 72 hours at 37° C. and 5% CO2. A volume of 15 μL of Alamar Blue reagent is added to each well and plates are incubated for 5 hours at 37° C. and 5% CO2. Alamar Blue fluoresce is read at 560Ex/590Em, and IC50 or EC50 values are calculated using GraphPad Prism 5.

T4 sequence (P42336 whole entry): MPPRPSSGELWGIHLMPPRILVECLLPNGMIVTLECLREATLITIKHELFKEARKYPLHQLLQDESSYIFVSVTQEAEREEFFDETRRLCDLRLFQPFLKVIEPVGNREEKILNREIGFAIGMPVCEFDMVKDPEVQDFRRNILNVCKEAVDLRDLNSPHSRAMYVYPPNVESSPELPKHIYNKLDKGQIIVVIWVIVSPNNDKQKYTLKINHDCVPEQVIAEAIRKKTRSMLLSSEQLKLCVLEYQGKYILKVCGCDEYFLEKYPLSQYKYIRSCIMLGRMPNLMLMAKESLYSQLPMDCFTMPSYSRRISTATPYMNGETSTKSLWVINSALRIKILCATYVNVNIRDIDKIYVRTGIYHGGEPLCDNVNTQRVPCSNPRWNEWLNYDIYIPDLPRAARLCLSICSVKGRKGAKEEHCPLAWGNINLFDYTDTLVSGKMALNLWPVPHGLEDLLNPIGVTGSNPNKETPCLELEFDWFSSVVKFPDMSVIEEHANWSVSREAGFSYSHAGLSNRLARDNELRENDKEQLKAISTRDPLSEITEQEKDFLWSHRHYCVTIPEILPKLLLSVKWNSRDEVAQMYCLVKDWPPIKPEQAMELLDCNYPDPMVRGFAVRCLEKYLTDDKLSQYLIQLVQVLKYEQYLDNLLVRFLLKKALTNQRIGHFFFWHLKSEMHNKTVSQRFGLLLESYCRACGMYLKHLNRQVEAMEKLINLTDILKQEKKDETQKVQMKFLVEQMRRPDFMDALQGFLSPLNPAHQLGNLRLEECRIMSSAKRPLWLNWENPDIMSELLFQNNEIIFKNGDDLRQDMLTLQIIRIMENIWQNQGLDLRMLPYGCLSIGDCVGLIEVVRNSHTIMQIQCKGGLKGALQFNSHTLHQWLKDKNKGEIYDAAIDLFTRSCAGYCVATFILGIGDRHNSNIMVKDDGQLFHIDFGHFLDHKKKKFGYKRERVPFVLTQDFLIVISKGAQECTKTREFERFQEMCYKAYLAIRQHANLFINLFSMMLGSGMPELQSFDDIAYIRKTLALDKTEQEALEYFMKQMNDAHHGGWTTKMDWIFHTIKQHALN
T4 sequence (P27986 whole entry partner): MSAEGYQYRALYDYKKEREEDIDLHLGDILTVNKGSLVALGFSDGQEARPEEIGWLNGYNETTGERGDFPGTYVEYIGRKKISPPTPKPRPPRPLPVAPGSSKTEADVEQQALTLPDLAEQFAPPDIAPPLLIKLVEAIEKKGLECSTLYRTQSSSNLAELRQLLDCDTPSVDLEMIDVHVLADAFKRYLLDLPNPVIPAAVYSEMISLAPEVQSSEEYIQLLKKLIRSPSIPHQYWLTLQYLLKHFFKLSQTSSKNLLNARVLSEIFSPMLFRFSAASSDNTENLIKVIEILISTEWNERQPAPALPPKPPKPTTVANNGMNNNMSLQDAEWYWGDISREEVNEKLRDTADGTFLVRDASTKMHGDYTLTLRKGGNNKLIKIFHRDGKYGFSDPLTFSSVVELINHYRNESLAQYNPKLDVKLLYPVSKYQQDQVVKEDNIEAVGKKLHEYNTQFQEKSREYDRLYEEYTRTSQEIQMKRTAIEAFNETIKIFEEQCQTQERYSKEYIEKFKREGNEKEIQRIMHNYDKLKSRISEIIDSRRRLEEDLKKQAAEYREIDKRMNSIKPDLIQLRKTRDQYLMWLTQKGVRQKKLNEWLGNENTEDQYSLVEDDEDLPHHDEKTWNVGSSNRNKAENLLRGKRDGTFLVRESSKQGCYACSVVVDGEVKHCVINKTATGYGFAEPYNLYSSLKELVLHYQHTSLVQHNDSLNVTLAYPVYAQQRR
T1 sequence (O00329 whole entry): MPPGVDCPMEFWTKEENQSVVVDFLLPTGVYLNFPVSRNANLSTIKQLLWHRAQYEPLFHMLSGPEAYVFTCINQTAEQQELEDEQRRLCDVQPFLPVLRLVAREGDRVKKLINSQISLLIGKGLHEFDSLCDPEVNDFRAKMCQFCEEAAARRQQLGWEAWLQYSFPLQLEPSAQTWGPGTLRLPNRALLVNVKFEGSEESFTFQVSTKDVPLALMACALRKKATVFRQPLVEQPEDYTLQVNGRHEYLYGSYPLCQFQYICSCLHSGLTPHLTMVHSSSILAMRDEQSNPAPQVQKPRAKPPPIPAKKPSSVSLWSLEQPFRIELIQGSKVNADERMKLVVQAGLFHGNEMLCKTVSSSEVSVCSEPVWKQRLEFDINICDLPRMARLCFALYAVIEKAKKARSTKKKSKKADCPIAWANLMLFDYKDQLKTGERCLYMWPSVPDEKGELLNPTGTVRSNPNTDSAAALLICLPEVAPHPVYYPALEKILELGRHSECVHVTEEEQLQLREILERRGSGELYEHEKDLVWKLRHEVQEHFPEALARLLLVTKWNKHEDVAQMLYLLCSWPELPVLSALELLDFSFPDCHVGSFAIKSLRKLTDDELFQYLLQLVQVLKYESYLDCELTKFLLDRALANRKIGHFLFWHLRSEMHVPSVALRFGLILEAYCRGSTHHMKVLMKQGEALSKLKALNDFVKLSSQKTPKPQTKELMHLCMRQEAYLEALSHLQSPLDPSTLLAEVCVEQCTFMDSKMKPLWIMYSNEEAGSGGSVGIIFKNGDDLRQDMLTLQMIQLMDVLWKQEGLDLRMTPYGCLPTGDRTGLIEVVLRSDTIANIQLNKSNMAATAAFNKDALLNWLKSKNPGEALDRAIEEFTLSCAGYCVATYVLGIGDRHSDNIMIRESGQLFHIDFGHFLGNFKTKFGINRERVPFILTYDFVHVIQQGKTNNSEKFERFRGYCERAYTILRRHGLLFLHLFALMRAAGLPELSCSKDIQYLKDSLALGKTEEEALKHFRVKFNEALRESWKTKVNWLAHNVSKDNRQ
T1 sequence (P27986 whole entry partner): as the sequence (P27986 whole entry partner) above
T2 sequence (P48736 whole entry): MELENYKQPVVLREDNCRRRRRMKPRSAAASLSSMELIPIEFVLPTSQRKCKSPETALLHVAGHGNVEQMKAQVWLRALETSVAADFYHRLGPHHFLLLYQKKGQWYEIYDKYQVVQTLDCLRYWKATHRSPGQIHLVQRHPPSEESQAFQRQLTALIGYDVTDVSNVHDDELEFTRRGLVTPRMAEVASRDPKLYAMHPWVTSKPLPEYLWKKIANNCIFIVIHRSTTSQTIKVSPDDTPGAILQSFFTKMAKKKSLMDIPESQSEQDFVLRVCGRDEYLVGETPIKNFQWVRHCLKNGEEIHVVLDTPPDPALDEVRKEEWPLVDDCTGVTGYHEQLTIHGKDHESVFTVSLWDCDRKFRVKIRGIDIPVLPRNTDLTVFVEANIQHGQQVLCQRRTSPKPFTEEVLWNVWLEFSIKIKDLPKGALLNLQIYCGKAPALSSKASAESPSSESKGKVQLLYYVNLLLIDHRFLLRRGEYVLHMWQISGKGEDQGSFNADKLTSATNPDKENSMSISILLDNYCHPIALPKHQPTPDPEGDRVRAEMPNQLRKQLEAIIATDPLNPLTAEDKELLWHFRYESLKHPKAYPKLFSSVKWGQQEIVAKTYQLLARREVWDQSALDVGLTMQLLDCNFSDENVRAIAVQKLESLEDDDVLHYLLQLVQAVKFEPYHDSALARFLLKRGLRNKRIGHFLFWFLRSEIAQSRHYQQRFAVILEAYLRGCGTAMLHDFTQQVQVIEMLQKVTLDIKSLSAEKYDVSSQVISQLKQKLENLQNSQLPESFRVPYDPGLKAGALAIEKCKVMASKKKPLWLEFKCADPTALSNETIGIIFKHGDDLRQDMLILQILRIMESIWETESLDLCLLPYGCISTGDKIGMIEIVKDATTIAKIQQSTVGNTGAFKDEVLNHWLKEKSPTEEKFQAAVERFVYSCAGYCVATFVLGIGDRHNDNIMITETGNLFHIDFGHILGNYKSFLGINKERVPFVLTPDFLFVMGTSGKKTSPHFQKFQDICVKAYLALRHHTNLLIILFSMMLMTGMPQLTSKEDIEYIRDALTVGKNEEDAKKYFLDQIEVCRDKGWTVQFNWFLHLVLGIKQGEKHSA
T3 sequence (P42338 whole entry): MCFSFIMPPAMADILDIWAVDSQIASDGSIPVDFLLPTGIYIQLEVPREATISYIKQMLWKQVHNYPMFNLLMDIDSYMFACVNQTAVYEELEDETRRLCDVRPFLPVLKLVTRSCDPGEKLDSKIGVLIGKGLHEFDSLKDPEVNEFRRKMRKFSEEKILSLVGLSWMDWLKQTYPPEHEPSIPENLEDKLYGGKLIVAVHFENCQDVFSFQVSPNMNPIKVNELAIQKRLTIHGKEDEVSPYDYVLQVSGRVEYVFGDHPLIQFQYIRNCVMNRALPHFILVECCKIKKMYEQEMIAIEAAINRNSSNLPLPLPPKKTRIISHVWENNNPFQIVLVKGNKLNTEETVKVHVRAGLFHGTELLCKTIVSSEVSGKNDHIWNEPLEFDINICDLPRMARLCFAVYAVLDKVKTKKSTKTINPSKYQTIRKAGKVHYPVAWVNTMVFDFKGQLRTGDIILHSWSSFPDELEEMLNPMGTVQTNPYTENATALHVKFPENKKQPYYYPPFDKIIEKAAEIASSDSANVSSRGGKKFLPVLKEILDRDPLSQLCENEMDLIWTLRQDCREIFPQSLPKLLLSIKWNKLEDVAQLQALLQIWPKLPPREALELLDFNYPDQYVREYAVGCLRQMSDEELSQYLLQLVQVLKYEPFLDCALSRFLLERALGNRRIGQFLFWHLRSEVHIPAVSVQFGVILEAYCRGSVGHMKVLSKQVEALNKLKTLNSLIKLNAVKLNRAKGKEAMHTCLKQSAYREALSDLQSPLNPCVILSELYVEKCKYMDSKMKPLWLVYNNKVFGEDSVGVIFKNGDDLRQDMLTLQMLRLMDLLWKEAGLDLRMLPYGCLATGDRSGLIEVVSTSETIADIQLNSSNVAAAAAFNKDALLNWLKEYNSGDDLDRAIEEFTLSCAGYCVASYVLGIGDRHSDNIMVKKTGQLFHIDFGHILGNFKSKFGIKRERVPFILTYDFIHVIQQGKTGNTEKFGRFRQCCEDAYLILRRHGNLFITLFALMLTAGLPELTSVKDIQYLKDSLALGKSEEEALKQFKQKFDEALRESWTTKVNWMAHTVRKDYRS
T3 sequence (P27986 whole entry partner): as the sequence (P27986 whole entry partner) above

IC50 (PI3K δ) [nM] | IC50 (PI3K γ) [nM] | IC50 (PI3K β) [nM] | IC50 (PI3K α) [nM] | Compound | EC50 (Balb/c splenic B cells) [µM]
< 1000 | < 1000 | > 10000 | > 10000 | C[C@@H](Nc1ncnc2[nH]cnc12)c1cc2cccc(N3CCOCC3)c2c(=O)n1-c1ccccc1 (stereo in doubt) [Compound 39] | –
< 10000 | < 10000 | – | – | C[C@H](Nc1ncnc2[nH]cnc12)c1cc2cccc(N3CCCC3)c2c(=O)n1-c1ccccc1 [Compound 4, (S)-3-(1-((9H-purin-6-yl)amino)ethyl)-2-phenyl-8-(pyrrolidin-1-yl)isoquinolin-1 (2H)-one] | < 1
– | – | – | < 10000 | Cc1ccc(-c2cccc3cc([C@H](C)Nc4ncnc5[nH]cnc45)n(-c4ccccc4)c(=O)c23)cn1 [Compound 27] | < 0.1
– | < 10000 | – | – | C[C@H](Nc1ncnc2[nH]cnc12)c1cc2cccc(-n3cccn3)c2c(=O)n1-c1ccccc1 [Compound 29] | < 1
– | < 10000 | – | – | Cc1cnn(-c2cccc3cc([C@H](C)Nc4ncnc5[nH]cnc45)n(-c4ccccc4)c(=O)c23)c1 [Compound 30] | < 1
– | < 10000 | – | – | Cc1cn(-c2cccc3cc([C@H](C)Nc4ncnc5[nH]cnc45)n(-c4ccccc4)c(=O)c23)cn1 [Compound 31] | < 0.1
– | – | < 10000 | – | C[C@H](Nc1nc(N)nc2[nH]cnc12)c1cc2cccc(-c3cnn(C)c3)c2c(=O)n1-c1ccccc1 [Compound 36] | < 0.1
– | – | < 10000 | – | Cc1cc(-c2cccc3cc([C@H](C)Nc4ncnc5[nH]cnc45)n(-c4ccccc4)c(=O)c23)ccn1 [Compound 41] | < 0.1
– | – | – | < 10000 | C[C@H](Nc1ncnc2[nH]cnc12)c1cc2cccc(-c3cnn(C)c3)c2c(=O)n1-c1cccc(F)c1 [Compound 45] | < 0.1
– | < 10000 | – | < 10000 | COc1ncc(-c2cccc3cc([C@H](C)Nc4ncnc5[nH]cnc45)n(-c4ccccc4)c(=O)c23)cn1 [Compound 76] | –

More lines, now with the values behind:

Compound | IC50 (PI3K δ) [nM] | IC50 (PI3K γ) [nM] | IC50 (PI3K β) [nM] | IC50 (PI3K α) [nM] | EC50 (Balb/c splenic B cells) [µM]
C[C@@H](Nc1ncnc2[nH]cnc12)c1cc2cccc(NC3CCOCC3)c2c(=O)n1-c1ccccc1 (stereo in doubt) [Compound 40] | < 1000 | < 10000 | > 10000 | > 10000 | –
C[C@H](Nc1ncnc2[nH]cnc12)c1cc2cccc(N3CCN(C)CC3)c2c(=O)n1-c1ccccc1 [Compound 5, (S)-3-(1-((9H-purin-6-yl)amino)ethyl)-8-(4-methylpiperazin-1-yl)-2-phenylisoquinolin-1(2H)-one] | – | – | – | – | < 0.1
C[C@H](Nc1ncnc(N)n1)c1cc2cccc(-c3cnn(C)c3)c2c(=O)n1-c1ccccc1 [Compound 33, 3-((S)-1-(4-amino-1,3,5-triazin-2-ylamino)ethyl)-8-(1-methyl-1H-pyrazol-4-yl)-2-phenylisoquinolin-1(2H)-one] | – | < 10000 | – | – | < 0.1
Cc1ccc(-c2cccc3cc([C@H](C)Nc4ncnc(N)n4)n(-c4ccccc4)c(=O)c23)cn1 [Compound 34] | – | < 10000 | – | – | < 1
Cc1ccc(-c2cccc3cc([C@H](C)Nc4nc(N)nc5[nH]cnc45)n(-c4ccccc4)c(=O)c23)cn1 [Compound 37] | – | – | < 10000 | – | < 0.1
C[C@H](Nc1nc(N)nc2[nH]cnc12)c1cc2cccc(-c3cccnc3)c2c(=O)n1-c1ccccc1 [Compound 38] | – | – | < 10000 | – | –
C[C@H](Nc1ncnc2[nH]cnc12)c1cc2cccc(-c3cccnc3)c2c(=O)[nH]1 [Compound 49] | – | – | – | – | < 0.1
C[C@H](Nc1ncnc2[nH]cnc12)c1cc2cccc(-c3cnn(C)c3)c2c(=O)[nH]1 [Compound 50] | < 10000 | – | – | – | –
C[C@H](Nc1ncnn2ccnc12)c1cc2cccc(-c3cnn(C)c3)c2c(=O)n1-c1ccccc1 [Compound 52] | – | – | – | < 10000 | < 0.1
C[C@H](Nc1ncnn2cncc12)c1cc2cccc(-c3cnn(C)c3)c2c(=O)n1-c1ccccc1 [Compound 54] | < 10000 | – | – | – | –
C[C@H](Nc1ncnc2[nH]cc(C#N)c12)c1cc2cccc(-c3cnn(C)c3)c2c(=O)n1-c1ccccc1 [Compound 56] | – | – | < 10000 | – | < 0.1
C[C@H](Nc1ncnc2[nH]cc(C(N)=O)c12)c1cc2cccc(-c3cnn(C)c3)c2c(=O)n1-c1ccccc1 [Compound 58] | – | – | < 10000 | < 10000 | –
C[C@H](Nc1ncnc2[nH]cc(F)c12)c1cc2cccc(-c3cnn(C)c3)c2c(=O)n1C1CC1 [Compound 62] | – | – | < 10000 | < 10000 | < 0.1
C[C@H](Nc1nc(N)ncc1C(F)(F)F)c1cc2cccc(-c3cnn(C)c3)c2c(=O)n1C1CC1 [Compound 67] | – | – | – | – | < 0.1
C[C@H](Nc1nc(N)ncc1C(F)(F)F)c1cc2cccc(-c3cnn(C)c3)c2c(=O)n1-c1ccccc1 [Compound 68] | – | – | – | – | < 0.1
C[C@H](Nc1nc(N)ncc1C#N)c1cc2cccc(-c3cnn(C)c3)c2c(=O)n1C1CC1 [Compound 72] | – | – | – | < 10000 | –
C[C@H](Nc1ncnc(N)c1C#N)c1cc2cccc(-c3cnn(C)c3)c2c(=O)n1-c1ccccc1 [Compound 73] | – | – | – | < 10000 | –
